In publication PMC9241695, “Selective Metal Chelation by a Thiosemicarbazone Derivative Interferes with Mitochondrial Respiration and Ribosome Biogenesis in Candida albicans” (Microbiology Spectrum, 2022):
In brackets after ≈: the same amount, converted by molar mass.

Key:
[1] = tested on: C. albicans Gu5; experiment: microbe, parasite or virus in culture; type: cell-based; conditions: Candida albicans, GU5
From the text: (§1) Compound library. The thiosemicarbazone derivatives Triapine and COTI-2 were purchased from Med Chem Express (MCE). The other 87 thiosemicarbazones used in this study were previously synthesized by our collaborators (1, 2). Their structures are shown in Table 1 and Table S1 to help the reader clearly understand the relationship between structure and activity.
(§2) Strains and culture conditions. Clinically derived C. albicans isolates, including G5, F5, and Gu5, were kindly provided by Professor Joachim Morschhäuser of the University of Würzburg. Other clinical C. albicans isolates were kindly donated by Professor Qingguo Qi of Shandong University and Qianfoshan Hospital of Shandong Province Other Candida strains were obtained from Jinan Central Hospital.
(§3) The zap1 mutant and its complemented strain were kindly provided by Professor Aaron P. Mitchell of Carnegie Mellon University (3). The C. neoformans strains used in this study was kindly donated by Professor Guojian Liao of Southwest University and A. fumigatus strain used in this study was provided by Professor Ling Lu of Nanjing Normal University. Before in vitro and in vivo experiments, all C. albicans strains were grown on YPD agar plates. After culturing at 30°C for 24 h, colonies of each strain were cultured in liquid YPD medium at 30°C with continuous shaking […]
(§4) Antifungal susceptibility testing. To determine in vitro antifungal activities, the microbroth dilution method was carried out in RPMI1640 medium according to the guidelines of the Clinical and Laboratory Standards Institute (4, 5). The initial concentration in RPMI1640 medium was 1 × 10^3 CFU/mL for the C. albicans and C. neoformans suspensions but 1 × 10^4 CFU/mL for A. fumigatus. The range of final drug concentrations was 0.0156–64 μg/mL. The plates were incubated at35°C for 24 […]
(§5) h (for C. albicans, C. krusei, C. tropicalis, C. parapsilosis) or 48 h (for C. neoformans, A. fumigatus). The MIC was determined based on visible growth inhibition compared with the control. All experiments were performed in duplicate. […]

[2] = tested on: C. albicans G5; experiment: microbe, parasite or virus in culture; type: cell-based; conditions: Candida albicans, G5
From the text: as §1, §2, §3, §4, §5

[3] = tested on: C. parapsilosis CP001; experiment: Microbroth dilution MIC80; type: cell-based, Candida parapsilosis; conditions: Lodderomyces parapsilosis, CP001
From the text: as §1, §2, §3, §4, §5

[4] = tested on: human bronchial epithelial cell line 16HBE; experiment: Cytotoxicity testing (MTT); type: cell-based; conditions: ratio of IC50 against 16HBE to MIC80 against C. albicans SC5314
Experimental: (§6) h (for C. albicans, C. krusei, C. tropicalis, C. parapsilosis) or 48 h (for C. neoformans, A. fumigatus). The MIC was determined based on visible growth inhibition compared with the control. All experiments were performed in duplicate.
(§7) Cytotoxicity testing. The cell lines HK2 and 16HBE were used to evaluate the cytotoxicity of 19ak, 19k and 19t. Cells in DMEM containing 10% fetal bovine serum (Gibco) were seeded in 96-well tissue culture plates at a cell density of 1 × 10^4 cells/mL and incubated for 24 h to allow adhesion. The supernatant was then replaced with fresh DMEM containing various concentrations of 19ak, 19k and 19t. The plates were subsequently incubated for an additional 48 h at 37°C with 5% CO2, followed by the addition of 10 μL of MTT solution to each well and incubation at 37°C for 4 h.
(§8) The effects of the compounds on cell proliferation were detected by measuring the absorbance at 570 nm in a microplate reader (BioTek, VT, USA). Three independent experiments were conducted. […]

[5] = Cytotoxicity testing (MTT); type: cell-based, human; conditions: human, 48 h, MTT
Experimental: as §6, §7, §8

[6] = tested on: human renal epithelial cell line HK2; experiment: Cytotoxicity testing (MTT); type: cell-based; conditions: ratio of IC50 against HK2 to MIC80 against C. albicans SC5314
Experimental: as §6, §7, §8

[7] = tested on: C. krusei CK1; experiment: Microbroth dilution MIC80; type: cell-based, Candida krusei; conditions: Pichia kudriavzevii, CK1
From the text: as §1, §2, §3, §4, §5

[8] = tested on: C. albicans SC5314; experiment: Minimal fungicidal concentration (MFC); type: cell-based; conditions: Candida albicans, read-out: MFC against C. albicans SC5314
[9] = tested on: A. fumigatus AF293; experiment: Antifungal susceptibility testing, microbroth dilution MIC; type: cell-based; conditions: Aspergillus fumigatus, AF293; standard strain of A. fumigatus; 48 h; read-out: MIC (μg/mL) against fungi AF293
From the text: as §1, §2
(§9) The zap1 mutant and its complemented strain were kindly provided by Professor Aaron P. Mitchell of Carnegie Mellon University (3). The C. neoformans strains used in this study was kindly donated by Professor Guojian Liao of Southwest University and A. fumigatus strain used in this study was provided by Professor Ling Lu of Nanjing Normal University. […]
as §4, §5

[10] = tested on: C. neoformans H99; experiment: as above; type: cell-based; conditions: Cryptococcus neoformans, H99; C. neoformans wild-type strain; 48 h; read-out: MIC (μg/mL) against fungi H99
From the text: as §1, §2, §9, §4, §5

[11] = tested on: C. albicans SC5314; experiment: as above; type: cell-based; conditions: Candida albicans, SC5314; C. albicans wild-type strain; RPMI1640, 35°C, 24 h; read-out: MIC (μg/mL) against fungi SC5314
From the text: as §1, §2, §3, §4, §5

[12] = tested on: C. albicans 24g; experiment: Microbroth dilution MIC80; type: cell-based; conditions: Candida albicans, 24G
From the text: as §1, §2, §3, §4, §5

[13] = tested on: C. albicans 28A; experiment: Microbroth dilution MIC80; type: cell-based; conditions: Candida albicans, 28A
From the text: as §1, §2, §3, §4, §5

[14] = tested on: C. albicans CA3; experiment: Microbroth dilution MIC80; type: cell-based; conditions: Candida albicans, CA3
From the text: as §1, §2, §3, §4, §5

[15] = tested on: C. albicans DSY654; experiment: Microbroth dilution MIC80; type: cell-based; conditions: Candida albicans
From the text: as §1, §2, §3, §4, §5

[16] = tested on: C. albicans CA1; experiment: Microbroth dilution MIC80; type: cell-based; conditions: Candida albicans, CA1
From the text: as §1, §2, §3, §4, §5

[17] = tested on: C. albicans 11f; experiment: Microbroth dilution MIC80; type: cell-based; conditions: Candida albicans, 11F
From the text: as §1, §2, §3, §4, §5

[18] = tested on: C. albicans 28D; experiment: Microbroth dilution MIC80; type: cell-based; conditions: Candida albicans, 28D
From the text: as §1, §2, §3, §4, §5

[19] = tested on: C. albicans F5; experiment: Microbroth dilution MIC80; type: cell-based; conditions: Candida albicans, F5
From the text: as §1, §2, §3, §4, §5

[20] = tested on: C. albicans 11e; experiment: Microbroth dilution MIC80; type: cell-based; conditions: Candida albicans, 11E
From the text: as §1, §2, §3, §4, §5

[21] = tested on: C. albicans 28I; experiment: Microbroth dilution MIC80; type: cell-based; conditions: Candida albicans, 28I
From the text: as §1, §2, §3, §4, §5

[22] = tested on: C. albicans YEM13; experiment: Microbroth dilution MIC80; type: cell-based; conditions: Candida albicans
From the text: as §1, §2, §3, §4, §5

[23] = tested on: C. albicans YEM15; experiment: Microbroth dilution MIC80; type: cell-based; conditions: Candida albicans, YEM15
From the text: as §1, §2, §3, §4, §5

[24] = tested on: C. tropicalis CT2; experiment: Microbroth dilution MIC80; type: cell-based; conditions: Candida tropicalis, CT2
From the text: as §1, §2, §3, §4, §5

[25] = tested on: A. fumigatus 1161; experiment: Microbroth dilution MIC80; type: cell-based; conditions: Aspergillus fumigatus, 1161
From the text: as §1, §2, §3, §4, §5

[26] = tested on: C. albicans CA4; experiment: Microbroth dilution MIC80; type: cell-based; conditions: Candida albicans, CA4
From the text: as §1, §2, §3, §4, §5

[27] = tested on: C. neoformans 108; experiment: Microbroth dilution MIC80; type: cell-based; conditions: Cryptococcus neoformans, 108
From the text: as §1, §2, §3, §4, §5

[28] = Cytotoxicity testing (MTT); type: cell-based, human; conditions: human, HepG2 cells (hepatocellular carcinoma cell line)
[29] = tested on: human hepatocellular carcinoma cell line HepG2; experiment: Cytotoxicity testing (MTT); type: cell-based; conditions: ratio of IC50 against HepG2 to MIC80 against C. albicans SC5314

With `C/C(=N\NC(=S)Nc1ccc(Br)cc1)c1ccccn1` [Compound 19t] the MIC80 [1] was 1 µg/mL (≈ 2.86 µM), the MIC80 [2] was 1 µg/mL (≈ 2.86 µM) and the MIC80 [3] was 0.5 µg/mL (≈ 1.43 µM). For the same compound, the “Selectivity index 16HBE” value [4] was 2.858, the IC50 at 48 h ([5]; 16HBE cells (bronchial epithelial cell line), 16HBE cells) was 1.43 µg/mL (≈ 4.09 µM) and the IC50 at 48 h ([5]; HK2 cells (renal epithelial cell line), HK2 cells) was 3.46 µg/mL (≈ 9.9 µM). The “Selectivity index HK2” value [6] was 6.918, the MIC80 [7] was 0.5 µg/mL (≈ 1.43 µM) and the MFC [8] was 64 µg/mL (≈ 183 µM). The MIC [9] was 0.125 µg/mL (≈ 0.358 µM), the MIC [10] was 0.031 µg/mL (≈ 0.0888 µM) and the MIC [11] was 0.5 µg/mL (≈ 1.43 µM). It also gave an MIC80 [12] of 0.25 µg/mL (≈ 0.716 µM), an MIC80 [13] of 0.25 µg/mL (≈ 0.716 µM) and an MIC80 [14] of 0.25 µg/mL (≈ 0.716 µM). For the same compound, the MIC80 [15] was 0.25 µg/mL (≈ 0.716 µM), the MIC80 [16] was 0.25 µg/mL (≈ 0.716 µM) and the MIC80 [17] was 0.25 µg/mL (≈ 0.716 µM). It also gave an MIC80 [18] of 0.25 µg/mL (≈ 0.716 µM), an MIC80 [19] of 0.25 µg/mL (≈ 0.716 µM) and an MIC80 [20] of 0.5 µg/mL (≈ 1.43 µM). It also gave an MIC80 [21] of 0.5 µg/mL (≈ 1.43 µM), an MIC80 [22] of 1 µg/mL (≈ 2.86 µM) and an MIC80 [23] of 1 µg/mL (≈ 2.86 µM). For the same compound, the MIC80 [24] was 0.5 µg/mL (≈ 1.43 µM), the MIC80 [25] was 0.125 µg/mL (≈ 0.358 µM) and the MIC80 [26] was 0.25 µg/mL (≈ 0.716 µM). For the same compound, the MIC80 [27] was 0.031 µg/mL (≈ 0.0888 µM), the IC50 [28] was 1.39 µg/mL (≈ 3.98 µM) and the “Selectivity index HepG2” value [29] was 2.778.
